Results from patent publication US20060121449A1, “Method for selection of compounds which inhibit clonal cell growth and use thereof” (priority 2002, published 2006).

Legend:
[1] = tested on: S100T1 cell strain (polyoma virus transformed BHK21/c13); test: Surface growth (degree of confluence) of S100T1 cells on plastic (Exp 5); type: cell-based, hamster; settings: 2-4 days
From the text: The degree of confluence of polyoma virus transformed BHK21/c13 cells, the S100T1 cell strain, growing on plastic surface was observed 2-4 days after seeding 3000 or […] cells in appropriate wells of a 96 well tissue culture plate (Nunc).

HSV2 = HSV2 replication and cytopathogenicity in RK13 cells (Exp 12); type: cell-based, Herpes virus 2; settings: for Coverage of the bottom read after 24 hours: 1 g = 100% coverage of the bottom; for Cytopathogenicity read after 24 hours: 1d is 100% degeneration
Method: RK13 cells and HSV2 v12225 was obtained from Dr. G. Hoddevik, National Institute of Public Health, Oslo, Virus had been stored at −75° C. It was propagated on RK13 cells.
Then the medium, Eagles MEM with 5% FCS, was removed and replaced by new medium.
The inoculated virus was removed by changing the medium the day before titration. […] 1, esperiment 12.

HSV1 = HSV1 replication and cytopathogenicity in RK13 cells (Exp 11a, 11b); type: cell-based, Herpes virus type 1; settings: for Coverage of the bottom read after 2 days / Cytopathogenicity read after 2 days: 11b, HSV 2 μl/well; for Coverage of the bottom read after 2 days: 1 g = 100% coverage of the bottom; for Cytopathogenicity read after 2 days: 1d is 100% degeneration
Method: RK13 cells and HSV1 v:11252 was obtained from Dr. G. Hoddevik, National Institute of Public Health, Oslo, Virus had been stored at −75° C.
The inoculated virus was not removed before the titration in the last experiment. This time, however, removal of inoculate was performed next day.
HSV-1 was added undiluted, but 4-OH-OPB was diluted in 50 μl medium. The row seeded with 2000 nl of HSV was titrated and read after 4 days:
This time the inhibition is 10 times better than before. The difference from 1st time was that the day after infecting cell cultures the medium was changed in order to get rid of remaining active HSV. In addition the original HSV 1 infected and treated cultures were incubated one day more, for 48 hours. The production of virus is then measured in titration of 4-fold dilution steps.

[2] = tested on: BHK21/c13 (normal baby hamster kidney cells); test: Clonal growth of normal BHK21/c13 cells in soft agar with growth factors (Exp 3, 6); type: cell-based; design: Clonal inhibition: unit not given here; settings: for Clonal inhibition: BHK21/c13 + insulin
Method: This experiment used BHK21/c13 cells grown in the Falcon plates with 24 wells. Each well received 120000 cells seeded in a top layer of 0.3 ml with 0.8% ultra low gelling temperature agarose (type IX, Sigma). This layer was placed upon a 0.3 ml bottom layer with 3% of the same agarose. The medium contained Eagles MEM and RPMI 1640 with 10% foetal bovine serum. The medium was supplemented with either: 15% conditioned medium (from BHK21/c13 cultures), the serum extender Mito+ or 0.1 i.u. Insulin Actrapid (Novo) or with two or all three of these in combination.
Agar cultures were prepared in wells of 24 well Falcon tissue culture plate. […] The medium contained about equal amounts of Eagle and RPMI 1640 with 10% FBS. Insulin (Actrapid, Novo) was added in a concentration of 0.1 i.u./ml to BHK21/c13 cell cultures only.

CCCCC1(O)C(=O)N(c2ccccc2)N(c2ccc(O)cc2)C1=O (stereo not drawn) [4-OH-OPB, 4-butyl-4-hydroxy-2(p-hydroxyphenyl)-1-phenyl-3,5-pyrazolidinedione] was tested, and the “Concentration giving about full inhibition of growth on surface” value ([1]; 3000 S100T1 cells/well) was 1 µM, the “Concentration giving about full inhibition of growth on surface” value ([1]; 10000 S100T1 cells/well) was 3 µM and the “Concentrations with inhibited production of HSV2” value (HSV2) was “above 0.1 μM”. The “Coverage of the bottom read after 24 hours” value (from here on “Coverage … after 24 hours”) (HSV2; 2 μl/well, 0.1 μM) was 1 g, the “Cytopathogenicity read after 24 hours” value (HSV2; 2 μl/well, 0.1 μM) was 0.6 days and the “Coverage … after 24 hours” value (HSV2; 2 μl/well, 0.3 μM) was 1 g. The “Cytopathogenicity read after 24 hours” value (HSV2; 2 μl/well, 0.3 μM) was 0.7 days, the “Coverage … after 24 hours” value (HSV2; 2 μl/well, 1 μM) was 1 g and the “Cytopathogenicity read after 24 hours” value (HSV2; 2 μl/well, 1 μM) was 0.7 days. For the same molecule, the “Coverage … after 24 hours” value (HSV2; 2 μl/well, 3 μM) was 0.8 g, the “Cytopathogenicity read after 24 hours” value (HSV2; 2 μl/well, 3 μM) was 0.95 days and the “Coverage … after 24 hours” value (HSV2; 2 μl/well, 10 μM) was 0.9 g. The “Cytopathogenicity read after 24 hours” value (HSV2; 2 μl/well, 10 μM) was 0.95 days, the “Coverage … after 24 hours” value (HSV2; 2 μl/well, 30 μM) was 0.7 g and the “Cytopathogenicity read after 24 hours” value (HSV2; 2 μl/well, 30 μM) was 0.2 days. The “Coverage … after 24 hours” value (HSV2; 8 μl/well, 0.1 μM) was 1 g, the “Cytopathogenicity read after 24 hours” value (HSV2; 8 μl/well, 0.1 μM) was 0.9 days and the “Coverage … after 24 hours” value (HSV2; 8 μl/well, 0.3 μM) was 1 g. For the same molecule, the “Cytopathogenicity read after 24 hours” value (HSV2; 8 μl/well, 0.3 μM) was 0.9 days, the “Coverage … after 24 hours” value (HSV2; 8 μl/well, 1 μM) was 1 g and the “Cytopathogenicity read after 24 hours” value (HSV2; 8 μl/well, 1 μM) was 0.9 days. The “Coverage … after 24 hours” value (HSV2; 8 μl/well, 3 μM) was 0.8 g, the “Cytopathogenicity read after 24 hours” value (HSV2; 8 μl/well, 3 μM) was 0.95 days and the “Coverage … after 24 hours” value (HSV2; 8 μl/well, 10 μM) was 0.86 g. The “Cytopathogenicity read after 24 hours” value (HSV2; 8 μl/well, 10 μM) was 0.95 days, the “Coverage … after 24 hours” value (HSV2; 8 μl/well, 30 μM) was 0.7 g and the “Cytopathogenicity read after 24 hours” value (HSV2; 8 μl/well, 30 μM) was 0.2 days. The “Inhibition of HSV2 titre at 3 μM” value (HSV2; titration incubated for 3 days) was “about 3 log”, the “Coverage of the bottom read after 2 days” value (HSV1; 0.1 μM) was 1 g and the “Cytopathogenicity read after 2 days” value (HSV1; 0.1 μM) was 0.28 days. For the same molecule, the “Cytopathogenicity read after 2 days” value (HSV1; 0.3 μM) was 0.28 days, the “Coverage of the bottom read after 2 days” value (HSV1; 10 μM) was 0.4 g and the “Cytopathogenicity read after 2 days” value (HSV1; 30 μM) was 0 days. The “Concentration found to inhibit satisfactorily” value (HSV1; Exp 11b, new medium after 24 hours, titrated after 48 hours) was 1 µM, the Clonal inhibition ([2]; 0.3 μM added after 24 hours, read after 48 hours) was 0 and the Clonal inhibition ([2]; 0.3 μM added immediately, read after 24 hours) was 0. For the same molecule, the Clonal inhibition ([2]; 0.3 μM added immediately, read after 48 hours) was 0, the Clonal inhibition ([2]; 1 μM added after 24 hours, read after 48 hours) was 0 and the Clonal inhibition ([2]; 1 μM added immediately, read after 24 hours) was 0. For the same molecule, the Clonal inhibition ([2]; 1 μM added immediately, read after 48 hours) was 0, the Clonal inhibition ([2]; 3 μM added after 24 hours, read after 48 hours) was 0 and the Clonal inhibition ([2]; 3 μM added immediately, read after 24 hours) was 0. For the same molecule, the Clonal inhibition ([2]; 3 μM added immediately, read after 48 hours) was 0, the Clonal inhibition ([2]; 10 μM added after 24 hours, read after 48 hours) was 0 and the Clonal inhibition ([2]; 10 μM added immediately, read after 24 hours) was “+”. The Clonal inhibition ([2]; 10 μM added immediately, read after 48 hours) was “+”, the Clonal inhibition ([2]; 30 μM added after 24 hours, read after 48 hours) was 0 and the Clonal inhibition ([2]; 30 μM added immediately, read after 24 hours) was “+++”. For the same molecule, the Clonal inhibition ([2]; 30 μM added immediately, read after 48 hours) was “++”, the “Effect when treated first after 24 hours” value ([2]; Exp 6, BHK21/c13) was “no effect was detected” and the “Concentration with small, but significant effect on clonal inhibition” value ([2]; Exp 6, BHK21/c13, treated immediately on seeding, photograph after 24 hours) was no less than 10 µM.
